Measured values as given in patent publication US4450269A, “Mono-5-substituted-3-chloro-4H-1,2,6-thiadiazin-4-one antifungal agents” (FMC Corporation, priority 1980, dated 1984).
Structures can show the parent of a compound that is named as a salt.

Legend:
Assay in all cases: Spore germination test
Format in all cases: cell-based
Uromyces phaseoli = settings: UP, 48 hours
Method in brief: (§1)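 Compound was delivered in acetone into water agar at final 40, 10, 2.5 and 1 ppm. Alternaria solani and Botrytis cinerea spores were applied as sterile-water suspensions, while Erysiphe polygoni and Uromyces phaseoli spores were brushed on from infected leaves. After 48 h at 24° C., percentage germination was converted to a rating.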

Erysiphe polygoni = settings: EP, 48 hours
Method in brief: as §1

Botrytis cinerea = settings: BC, 48 hours
Method in brief: as §1

Measured: Spore Germination Rating

Cc1cc(Oc2nsnc(Cl)c2=O)cc(C)c1Br [Compound 60, 3-[(4-bromo-3,5-dimethyl)-phenoxy]-5-chloro-4H--1,2,6-thiadiazin-4-one]
0 (0-10): Uromyces phaseoli; 1.0 ppm | Uromyces phaseoli; 2.5 ppm | Uromyces phaseoli; 10 ppm | Uromyces phaseoli; 40 ppm | Erysiphe polygoni; 40 ppm
1 (10-40): Erysiphe polygoni; 2.5 ppm | Erysiphe polygoni; 10 ppm
4 (80-100): Botrytis cinerea; 1.0 ppm
3 (60-80): Botrytis cinerea; 2.5 ppm | Botrytis cinerea; 10 ppm | Botrytis cinerea; 40 ppm
2 (40-60): Erysiphe polygoni; 1.0 ppm

3-chloro-5-(bromophenoxy)-4H-1,2,6-thiadiazin-4-one [Compound 33]
3 (60-80): Botrytis cinerea; 2.5 ppm
4 (80-100): Botrytis cinerea; 1.0 ppm
0 (0-10): Uromyces phaseoli; 1.0 ppm | Uromyces phaseoli; 2.5 ppm | Uromyces phaseoli; 10 ppm | Uromyces phaseoli; 40 ppm | Erysiphe polygoni; 1.0 ppm | Erysiphe polygoni; 2.5 ppm | Erysiphe polygoni; 10 ppm | Erysiphe polygoni; 40 ppm | Botrytis cinerea; 10 ppm | Botrytis cinerea; 40 ppm

O=C(Nc1ccccc1)Oc1ccc(Oc2nsnc(Cl)c2=O)cc1 [Compound 37, 3-chloro-5-[4-(phenylaminocarbonyloxy)phenoxy]-4H-1,2,6,-thiadiazin-4-one]
1 (10-40): Uromyces phaseoli; 10 ppm | Uromyces phaseoli; 40 ppm
4 (80-100): Uromyces phaseoli; 1.0 ppm | Erysiphe polygoni; 1.0 ppm | Erysiphe polygoni; 2.5 ppm | Erysiphe polygoni; 10 ppm | Botrytis cinerea; 1.0 ppm | Botrytis cinerea; 2.5 ppm | Botrytis cinerea; 10 ppm | Botrytis cinerea; 40 ppm
3 (60-80): Erysiphe polygoni; 40 ppm
2 (40-60): Uromyces phaseoli; 2.5 ppm

O=C(O)c1ccc(Oc2nsnc(Cl)c2=O)cc1 [Compound 50, 3-(4-carboxyphenoxy)-5-chloro-4H--1,2,6-thiadiazin-4-one]
4 (80-100): Uromyces phaseoli; 1.0 ppm | Uromyces phaseoli; 2.5 ppm | Erysiphe polygoni; 1.0 ppm | Erysiphe polygoni; 2.5 ppm | Erysiphe polygoni; 10 ppm | Botrytis cinerea; 1.0 ppm | Botrytis cinerea; 2.5 ppm | Botrytis cinerea; 10 ppm | Botrytis cinerea; 40 ppm
0 (0-10): Uromyces phaseoli; 40 ppm
2 (40-60): Uromyces phaseoli; 10 ppm | Erysiphe polygoni; 40 ppm

O=c1c(Cl)nsnc1Oc1ccc(F)cc1 [Compound 11, 3-chloro-5-(4-fluorophenoxy)-4H--1,2,6-thiadiazin-4-one]
1 (10-40): Botrytis cinerea; 2.5 ppm
0 (0-10): Uromyces phaseoli; 2.5 ppm | Uromyces phaseoli; 10 ppm | Uromyces phaseoli; 40 ppm | Erysiphe polygoni; 1.0 ppm | Erysiphe polygoni; 2.5 ppm | Erysiphe polygoni; 10 ppm | Erysiphe polygoni; 40 ppm | Botrytis cinerea; 10 ppm | Botrytis cinerea; 40 ppm
4 (80-100): Uromyces phaseoli; 1.0 ppm | Botrytis cinerea; 1.0 ppm

CC(=O)c1ccc(Oc2nsnc(Cl)c2=O)cc1 [Compound 47, 3-(4-acetylphenoxy)-5-chloro-4H--1,2,6-thiadiazin-4-one]
4 (80-100): Erysiphe polygoni; 1.0 ppm | Erysiphe polygoni; 2.5 ppm | Erysiphe polygoni; 10 ppm | Botrytis cinerea; 1.0 ppm
1 (10-40): Erysiphe polygoni; 40 ppm | Botrytis cinerea; 2.5 ppm
0 (0-10): Uromyces phaseoli; 1.0 ppm | Uromyces phaseoli; 2.5 ppm | Uromyces phaseoli; 10 ppm | Uromyces phaseoli; 40 ppm | Botrytis cinerea; 10 ppm | Botrytis cinerea; 40 ppm

CC(=O)c1cccc(Oc2nsnc(Cl)c2=O)c1 [Compound 48, 3-(3-acetylphenoxy)-5-chloro-4H--1,2,6-thiadiazin-4-one]
2 (40-60): Erysiphe polygoni; 10 ppm | Erysiphe polygoni; 40 ppm
4 (80-100): Erysiphe polygoni; 1.0 ppm | Erysiphe polygoni; 2.5 ppm | Botrytis cinerea; 1.0 ppm | Botrytis cinerea; 2.5 ppm
0 (0-10): Uromyces phaseoli; 1.0 ppm | Uromyces phaseoli; 2.5 ppm | Uromyces phaseoli; 10 ppm | Uromyces phaseoli; 40 ppm | Botrytis cinerea; 10 ppm | Botrytis cinerea; 40 ppm

O=c1c(Cl)nsnc1Oc1ccc([N+](=O)[O-])cc1 [Compound 9, 3-chloro-5-(4-nitrophenoxy)-4H--1,2,6-thiadiazin-4-one]
0 (0-10): Uromyces phaseoli; 1.0 ppm | Uromyces phaseoli; 2.5 ppm | Uromyces phaseoli; 10 ppm | Uromyces phaseoli; 40 ppm | Botrytis cinerea; 1.0 ppm | Botrytis cinerea; 2.5 ppm | Botrytis cinerea; 10 ppm | Botrytis cinerea; 40 ppm
4 (80-100): Erysiphe polygoni; 1.0 ppm | Erysiphe polygoni; 2.5 ppm | Erysiphe polygoni; 10 ppm | Erysiphe polygoni; 40 ppm

3-chloro-5-[methylaminocarbonyloxy)phenoxyl]-4H-1,2,6-thiadiazin-4-one [Compound 36]
0 (0-10): Uromyces phaseoli; 10 ppm | Uromyces phaseoli; 40 ppm
2 (40-60): Uromyces phaseoli; 2.5 ppm | Botrytis cinerea; 40 ppm
4 (80-100): Uromyces phaseoli; 1.0 ppm | Erysiphe polygoni; 1.0 ppm | Botrytis cinerea; 1.0 ppm | Botrytis cinerea; 2.5 ppm | Botrytis cinerea; 10 ppm
3 (60-80): Erysiphe polygoni; 2.5 ppm
1 (10-40): Erysiphe polygoni; 10 ppm | Erysiphe polygoni; 40 ppm

O=c1c(Cl)nsnc1Oc1cccc(Cl)c1 [Compound 13, 3-chloro-5-(3-chlorophenoxy)-4H--1,2,6-thiadiazin-4-one]
0 (0-10): Uromyces phaseoli; 1.0 ppm | Uromyces phaseoli; 2.5 ppm | Uromyces phaseoli; 10 ppm | Uromyces phaseoli; 40 ppm | Erysiphe polygoni; 10 ppm | Erysiphe polygoni; 40 ppm | Botrytis cinerea; 10 ppm | Botrytis cinerea; 40 ppm
2 (40-60): Erysiphe polygoni; 2.5 ppm
4 (80-100): Erysiphe polygoni; 1.0 ppm | Botrytis cinerea; 1.0 ppm | Botrytis cinerea; 2.5 ppm

Cc1cc(Oc2nsnc(Cl)c2=O)cc(C)c1Cl [Compound 59, 3-chloro-5-[(4-chloro-3,5-dimethyl)phenoxy]-4H--1,2,6-thiadiazin-4-one]
0 (0-10): Uromyces phaseoli; 10 ppm | Uromyces phaseoli; 40 ppm
4 (80-100): Botrytis cinerea; 1.0 ppm | Botrytis cinerea; 2.5 ppm | Botrytis cinerea; 10 ppm
1 (10-40): Erysiphe polygoni; 2.5 ppm | Erysiphe polygoni; 10 ppm | Erysiphe polygoni; 40 ppm
2 (40-60): Uromyces phaseoli; 1.0 ppm | Uromyces phaseoli; 2.5 ppm | Erysiphe polygoni; 1.0 ppm
3 (60-80): Botrytis cinerea; 40 ppm

Cc1cc(Oc2nsnc(Cl)c2=O)ccc1Cl [Compound 54, 3-chloro-5-(4-chloro-3-methylphenoxy)-4H--1,2,6-thiadiazin-4-one]
2 (40-60): Erysiphe polygoni; 1.0 ppm | Botrytis cinerea; 10 ppm
0 (0-10): Uromyces phaseoli; 1.0 ppm | Uromyces phaseoli; 2.5 ppm | Uromyces phaseoli; 10 ppm | Uromyces phaseoli; 40 ppm | Erysiphe polygoni; 2.5 ppm | Erysiphe polygoni; 10 ppm | Erysiphe polygoni; 40 ppm
1 (10-40): Botrytis cinerea; 40 ppm
4 (80-100): Botrytis cinerea; 1.0 ppm | Botrytis cinerea; 2.5 ppm

Cc1cc(Cl)ccc1Oc1nsnc(Cl)c1=O [Compound 55, 3-chloro-5-(4-chloro-2-methylphenoxy)-4H--1,2,6-thiadiazin-4-one]
0 (0-10): Uromyces phaseoli; 1.0 ppm | Uromyces phaseoli; 2.5 ppm | Uromyces phaseoli; 10 ppm | Uromyces phaseoli; 40 ppm | Erysiphe polygoni; 2.5 ppm | Erysiphe polygoni; 10 ppm
1 (10-40): Erysiphe polygoni; 1.0 ppm | Erysiphe polygoni; 40 ppm | Botrytis cinerea; 10 ppm | Botrytis cinerea; 40 ppm
3 (60-80): Botrytis cinerea; 2.5 ppm
4 (80-100): Botrytis cinerea; 1.0 ppm

N#Cc1ccc(Oc2nsnc(Cl)c2=O)cc1 [Compound 10, 3-chloro-5-(4-cyanophenoxy)-4H--1,2,6-thiadiazin-4-one]
1 (10-40): Erysiphe polygoni; 40 ppm
0 (0-10): Uromyces phaseoli; 1.0 ppm | Uromyces phaseoli; 2.5 ppm | Uromyces phaseoli; 10 ppm | Uromyces phaseoli; 40 ppm | Botrytis cinerea; 2.5 ppm | Botrytis cinerea; 10 ppm | Botrytis cinerea; 40 ppm
2 (40-60): Erysiphe polygoni; 1.0 ppm | Erysiphe polygoni; 2.5 ppm | Erysiphe polygoni; 10 ppm | Botrytis cinerea; 1.0 ppm

O=c1c(Cl)nsnc1Oc1ccc(Cl)cc1Cl [Compound 17, 3-chloro-5-(2,4-dichlorophenoxy)-4H--1,2,6-thiadiazin-4-one]
4 (80-100): Botrytis cinerea; 1.0 ppm
0 (0-10): Uromyces phaseoli; 1.0 ppm | Uromyces phaseoli; 2.5 ppm | Uromyces phaseoli; 10 ppm | Uromyces phaseoli; 40 ppm | Erysiphe polygoni; 10 ppm | Erysiphe polygoni; 40 ppm | Botrytis cinerea; 2.5 ppm | Botrytis cinerea; 10 ppm | Botrytis cinerea; 40 ppm
1 (10-40): Erysiphe polygoni; 2.5 ppm
3 (60-80): Erysiphe polygoni; 1.0 ppm

Cc1cc(Cl)c(Oc2nsnc(Cl)c2=O)cc1C [Compound 58, 3-chloro-5-[(2-chloro-4,5-dimethyl)phenoxy]-4H--1,2,6-thiadiazin-4-one]
2 (40-60): Uromyces phaseoli; 1.0 ppm
0 (0-10): Uromyces phaseoli; 2.5 ppm | Uromyces phaseoli; 10 ppm | Uromyces phaseoli; 40 ppm | Erysiphe polygoni; 2.5 ppm | Erysiphe polygoni; 10 ppm | Erysiphe polygoni; 40 ppm | Botrytis cinerea; 2.5 ppm | Botrytis cinerea; 10 ppm | Botrytis cinerea; 40 ppm
3 (60-80): Botrytis cinerea; 1.0 ppm
4 (80-100): Erysiphe polygoni; 1.0 ppm

O=c1c(Cl)nsnc1Oc1cccc2ccccc12 [Compound 32, 3-chloro-5(1-naphthoxy)-4H-1,2,6-thiadiazin-4-one]
0 (0-10): Uromyces phaseoli; 2.5 ppm | Uromyces phaseoli; 10 ppm | Uromyces phaseoli; 40 ppm | Erysiphe polygoni; 10 ppm | Erysiphe polygoni; 40 ppm | Botrytis cinerea; 2.5 ppm | Botrytis cinerea; 10 ppm | Botrytis cinerea; 40 ppm
2 (40-60): Erysiphe polygoni; 1.0 ppm | Erysiphe polygoni; 2.5 ppm | Botrytis cinerea; 1.0 ppm
3 (60-80): Uromyces phaseoli; 1.0 ppm

Nc1ccc(Oc2nsnc(Cl)c2=O)cc1 [Compound 27, 5-(4-aminophenoxy)-3-chloro-4H--1,2,6-thiadiazine-4-one hydrochloride]
0 (0-10): Uromyces phaseoli; 40 ppm, hydrochloride
4 (80-100): Uromyces phaseoli; 1.0 ppm, hydrochloride
1 (10-40): Uromyces phaseoli; 2.5 ppm, hydrochloride | Uromyces phaseoli; 10 ppm, hydrochloride | Botrytis cinerea; 1.0 ppm, hydrochloride
